Measurements published in ChEMBL document CHEMBL1201861, “Genomics of Drug Sensitity in Cancer screening data, Wellcome Trust Sanger Institute”.

Columns and labels:
Assay in all cases: cells
NCI-H1651 = format: functional, cell-based, Homo sapiens; settings: Homo sapiens, NCI-H1651;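 note: Read-out is a cell viability assay, with IC50 expressing inhibition of NCI-H1651 cell growth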
Description: SANGER: Inhibition of human NCI-H1651 cell growth in a cell viability assay.

HCC38 = format: functional, cell-based, Homo sapiens; settings: Homo sapiens, HCC38;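 note: cell viability assay on the human HCC38 cell line, with IC50 marking the concentration that inhibits cell growth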
Description: SANGER: Inhibition of human HCC38 cell growth in a cell viability assay.

JEG-3 = format: functional, cell-based, Homo sapiens; settings: Homo sapiens, JEG-3;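 note: growth inhibition of human JEG-3 cells, read out with a cell viability assay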
Description: SANGER: Inhibition of human JEG-3 cell growth in a cell viability assay.

MeWo = format: functional, cell-based, Homo sapiens; settings: Homo sapiens, MeWo;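 note: growth inhibition of MeWo cells, determined by a cell viability readout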
Description: SANGER: Inhibition of human Mewo cell growth in a cell viability assay.

ACHN = format: functional, cell-based, Homo sapiens; settings: Homo sapiens, ACHN;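 note: cell viability read-out used to gauge how strongly growth of human ACHN cells is suppressed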
Description: SANGER: Inhibition of human ACHN cell growth in a cell viability assay.

C3A = format: functional, cell-based, Homo sapiens; settings: Homo sapiens, C3A;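 note: growth inhibition of C3A human cells, quantified with a cell viability readout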
Description: SANGER: Inhibition of human C3A cell growth in a cell viability assay.

BHT-101 = format: functional, cell-based, Homo sapiens; settings: Homo sapiens, BHT-101
Description: SANGER: Inhibition of human BHT-101 cell growth in a cell viability assay.

KYSE-520 cell line = format: functional, cell-based, Homo sapiens; settings: Homo sapiens, KYSE-520;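 note: growth inhibition of human KYSE-520 cells, read out with a viability assay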
Description: SANGER: Inhibition of human KYSE-520 cell growth in a cell viability assay.

A204 = format: functional, cell-based, Homo sapiens; settings: Homo sapiens, A204;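 note: growth inhibition of human A204 cells, read out with a cell viability assay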
Description: SANGER: Inhibition of human A204 cell growth in a cell viability assay.

NCI-H1693 = format: functional, cell-based, Homo sapiens; settings: Homo sapiens, NCI-H1693;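 note: growth inhibition of the human cell line, read out with a cell viability assay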
Description: SANGER: Inhibition of human NCI-H1693 cell growth in a cell viability assay.

CHP-212 = format: functional, cell-based, Homo sapiens; settings: Homo sapiens, CHP-212
Description: SANGER: Inhibition of human CHP-212 cell growth in a cell viability assay.

BT-549 = format: functional, cell-based, Homo sapiens; settings: Homo sapiens, BT-549
Description: SANGER: Inhibition of human BT-549 cell growth in a cell viability assay.

HCC1954 = format: functional, cell-based, Homo sapiens; settings: Homo sapiens, HCC1954;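 note: growth inhibition of human HCC1954 cells, read out with a cell viability assay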
Description: SANGER: Inhibition of human HCC1954 cell growth in a cell viability assay.

NCI-H2029 = format: functional, cell-based, Homo sapiens; settings: Homo sapiens, NCI-H2029;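 note: Read-out is a viability assay on the cultured cells, and IC50 is the concentration that suppresses cell growth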
Description: SANGER: Inhibition of human NCI-H2029 cell growth in a cell viability assay.

RD = format: functional, cell-based, Homo sapiens; settings: Homo sapiens, RD
Description: SANGER: Inhibition of human RD cell growth in a cell viability assay.

Ca-Ski = format: functional, cell-based, Homo sapiens; settings: Homo sapiens, Ca-Ski;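 note: cell viability assay measuring inhibition of Ca-Ski cell growth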
Description: SANGER: Inhibition of human Ca-Ski cell growth in a cell viability assay.

SK-MEL-30 = format: functional, cell-based, Homo sapiens; settings: Homo sapiens, SK-MEL-30;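 note: growth inhibition of SK-MEL-30 cells, determined with a cell viability assay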
Description: SANGER: Inhibition of human SK-MEL-30 cell growth in a cell viability assay.

J82 = format: functional, cell-based, Homo sapiens; settings: Homo sapiens, J82;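 note: growth inhibition of J82 cells, read out with a cell viability assay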
Description: SANGER: Inhibition of human J82 cell growth in a cell viability assay.

ABC-1 = format: functional, cell-based, Homo sapiens; settings: Homo sapiens, ABC-1;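 note: growth inhibition of human ABC-1 cells, read out by a cell viability assay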
Description: SANGER: Inhibition of human ABC-1 cell growth in a cell viability assay.

HT-29 = format: functional, cell-based, Homo sapiens; settings: Homo sapiens, HT-29;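 note: growth inhibition of human HT-29 cells, read out by a cell viability assay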
Description: SANGER: Inhibition of human HT-29 cell growth in a cell viability assay.

ChaGo-K-1 = format: functional, cell-based, Homo sapiens; settings: Homo sapiens, ChaGo-K-1;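 note: growth inhibition of ChaGo-K-1 cells, read out with a cell viability assay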
Description: SANGER: Inhibition of human ChaGo-K-1 cell growth in a cell viability assay.

SK-OV-3 = format: functional, cell-based, Homo sapiens; settings: Homo sapiens, SK-OV-3;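 note: growth inhibition of SK-OV-3 human cells, read out with a cell viability assay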
Description: SANGER: Inhibition of human SK-OV-3 cell growth in a cell viability assay.

A-431 = format: functional, cell-based, Homo sapiens; settings: Homo sapiens, A-431;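 note: growth inhibition of A-431 cells, determined with a cell viability read-out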
Description: SANGER: Inhibition of human A431 cell growth in a cell viability assay.

LoVo = format: functional, cell-based, Homo sapiens; settings: Homo sapiens, LoVo;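 note: growth inhibition of human LoVo cells, read out with a cell viability assay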
Description: SANGER: Inhibition of human LoVo cell growth in a cell viability assay.

NCI-H1048 = format: functional, cell-based, Homo sapiens; settings: Homo sapiens, NCI-H1048;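 note: growth inhibition of human NCI-H1048 cells, read out with a cell viability assay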
Description: SANGER: Inhibition of human NCI-H1048 cell growth in a cell viability assay.

HT1197 = format: functional, cell-based, Homo sapiens, HT-1197; settings: Homo sapiens, HT1197
Description: SANGER: Inhibition of human HT-1197 cell growth in a cell viability assay.

T47D = format: functional, cell-based, Homo sapiens; settings: Homo sapiens, T47D;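 note: growth inhibition of human T47D cells, measured with a cell viability assay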
Description: SANGER: Inhibition of human T47D cell growth in a cell viability assay.

HGC-27 = format: functional, cell-based, Homo sapiens; settings: Homo sapiens, HGC-27;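 note: growth inhibition of human HGC-27 cells, read out in a cell viability assay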
Description: SANGER: Inhibition of human HGC-27 cell growth in a cell viability assay.

ASPC1 = format: functional, cell-based, Homo sapiens; settings: Homo sapiens, ASPC1;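 note: growth inhibition of AsPC-1 cells, read out with a cell viability assay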
Description: SANGER: Inhibition of human AsPC-1 cell growth in a cell viability assay.

RPMI-2650 = format: functional, cell-based, Homo sapiens; settings: Homo sapiens, RPMI-2650
Description: SANGER: Inhibition of human RPMI-2650 cell growth in a cell viability assay.

NCI-H2228 = format: functional, cell-based, Homo sapiens; settings: Homo sapiens, NCI-H2228;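 note: growth inhibition of human NCI-H2228 cells, read out by a cell viability assay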
Description: SANGER: Inhibition of human NCI-H2228 cell growth in a cell viability assay.

SW48 = format: functional, cell-based, Homo sapiens; settings: Homo sapiens, SW48;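 note: growth inhibition of SW48 cells, read out with a cell viability assay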
Description: SANGER: Inhibition of human SW48 cell growth in a cell viability assay.

HLE = format: functional, cell-based, Homo sapiens; settings: Homo sapiens, HLE;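 note: growth inhibition of human HLE cells, read out by a cell viability assay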
Description: SANGER: Inhibition of human HLE cell growth in a cell viability assay.

KP-4 = format: functional, cell-based, Homo sapiens; settings: Homo sapiens, KP-4;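 note: human KP-4 cells, with growth inhibition read out through a cell viability assay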
Description: SANGER: Inhibition of human KP-4 cell growth in a cell viability assay.

T84 = format: functional, cell-based, Homo sapiens; settings: Homo sapiens, T84;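 note: growth inhibition measured with a cell viability readout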
Description: SANGER: Inhibition of human T84 cell growth in a cell viability assay.

786-0 = format: functional, cell-based, Homo sapiens; settings: Homo sapiens
Description: SANGER: Inhibition of human 786-0 cell growth in a cell viability assay.

Ca9-22 = format: functional, cell-based, Homo sapiens; settings: Homo sapiens, Ca9-22;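 note: growth inhibition of Ca9-22 cells, read out with a cell viability assay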
Description: SANGER: Inhibition of human Ca9-22 cell growth in a cell viability assay.

KYSE-70 cell line = format: functional, cell-based, Homo sapiens; settings: Homo sapiens, KYSE-70;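 note: cell viability assay read-out, with IC50 expressing suppression of KYSE-70 cell growth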
Description: SANGER: Inhibition of human KYSE-70 cell growth in a cell viability assay.

PC-14 = format: functional, cell-based, Homo sapiens; settings: Homo sapiens, PC-14;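 note: cell viability assay measuring inhibition of PC-14 cell growth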
Description: SANGER: Inhibition of human PC-14 cell growth in a cell viability assay.

Structure (SMILES): COc1cc2c(Nc3ccc(NC(=O)c4ccccc4)cc3)ncnc2cc1OCCCN1CCOCC1
- IC50 (NCI-H1651): 3.74 µM
- IC50 (HCC38): > 4 µM
- IC50 (JEG-3): > 4 µM
- IC50 (MeWo): > 4 µM
- IC50 (ACHN): > 4 µM
- IC50 (C3A): > 4 µM
- IC50 (BHT-101): > 4 µM
- IC50 (KYSE-520 cell line): > 4 µM
- IC50 (A204): > 4 µM
- IC50 (NCI-H1693): > 4 µM
- IC50 (CHP-212): 1.47 µM
- IC50 (BT-549): > 4 µM
- IC50 (HCC1954): > 4 µM
- IC50 (NCI-H2029): > 4 µM
- IC50 (RD): > 4 µM
- IC50 (Ca-Ski): > 4 µM
- IC50 (SK-MEL-30): > 4 µM
- IC50 (J82): > 4 µM
- IC50 (ABC-1): 1.4 µM
- IC50 (HT-29): > 4 µM
- IC50 (ChaGo-K-1): > 4 µM
- IC50 (SK-OV-3): > 4 µM
- IC50 (A-431): > 4 µM
- IC50 (LoVo): > 4 µM
- IC50 (NCI-H1048): 1.8 µM
- IC50 (HT1197): > 4 µM
- IC50 (T47D): > 4 µM
- IC50 (HGC-27): > 4 µM
- IC50 (ASPC1): > 4 µM
- IC50 (RPMI-2650): > 4 µM
- IC50 (NCI-H2228): > 4 µM
- IC50 (SW48): 1.23 µM
- IC50 (HLE): > 4 µM
- IC50 (KP-4): > 4 µM
- IC50 (T84): > 4 µM
- IC50 (786-0): > 4 µM
- IC50 (Ca9-22): 3.29 µM
- IC50 (KYSE-70 cell line): > 4 µM
- IC50 (PC-14): > 4 µM
